Assay results published in article PMC2762193 (Journal of the American Chemical Society, 2009).

Target: wtTaq polymerase (Thermus aquaticus, UniProt P19821)
Assay: gel-based steady-state single nucleotide incorporation, […]-labelled primer
Assay type: biochemical
Details: 1 x Taq buffer, 60 °C

Chain of wtTaq polymerase (P19821 whole entry): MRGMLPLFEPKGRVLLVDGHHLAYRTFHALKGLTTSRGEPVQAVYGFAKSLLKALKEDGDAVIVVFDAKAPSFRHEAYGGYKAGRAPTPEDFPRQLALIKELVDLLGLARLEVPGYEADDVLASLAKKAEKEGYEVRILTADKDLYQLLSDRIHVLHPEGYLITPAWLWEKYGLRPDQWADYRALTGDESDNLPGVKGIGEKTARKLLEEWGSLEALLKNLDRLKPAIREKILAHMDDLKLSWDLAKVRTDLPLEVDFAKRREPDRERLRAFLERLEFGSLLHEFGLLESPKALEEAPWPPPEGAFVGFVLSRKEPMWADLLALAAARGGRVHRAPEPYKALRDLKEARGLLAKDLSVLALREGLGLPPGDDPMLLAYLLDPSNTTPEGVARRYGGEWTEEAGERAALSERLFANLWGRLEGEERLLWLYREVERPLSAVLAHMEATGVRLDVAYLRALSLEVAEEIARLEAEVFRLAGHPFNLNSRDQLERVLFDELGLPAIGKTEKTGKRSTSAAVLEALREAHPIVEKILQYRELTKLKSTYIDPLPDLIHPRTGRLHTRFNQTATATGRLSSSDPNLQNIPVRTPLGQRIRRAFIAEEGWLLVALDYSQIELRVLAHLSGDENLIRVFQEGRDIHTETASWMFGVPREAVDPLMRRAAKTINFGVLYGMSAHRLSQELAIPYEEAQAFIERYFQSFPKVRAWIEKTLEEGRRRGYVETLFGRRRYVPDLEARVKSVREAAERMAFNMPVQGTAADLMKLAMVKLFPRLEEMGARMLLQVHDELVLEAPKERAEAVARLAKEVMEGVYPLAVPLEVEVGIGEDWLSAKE

Cc1cn([C@H]2C[C@H](O)[C@@H](COP(=O)(O)OP(=O)(O)OP(=O)(O)O)O2)c(=O)[nH]c1=O [dTTP]
Km (opposite template dA): incorporation of dTTP opposite dA or dGTP opposite dC

Nc1ncnc2c1ncn2[C@H]1C[C@H](O)[C@@H](COP(=O)(O)OP(=O)(O)OP(=O)(O)O)O1 [dATP]
Km (opposite template d5NI or d5NIC): incorporation of dNTPs opposite template d5NIC

Nc1nc2c(ncn2[C@H]2C[C@H](O)[C@@H](COP(=O)(O)OP(=O)(O)OP(=O)(O)O)O2)c(=O)[nH]1 [dGTP]
Km (opposite template dC): incorporation of dTTP opposite dA or dGTP opposite dC
